Source: the NIST ThermoML archive (doi:10.1016/j.fluid.2006.09.025)
± gives the expanded uncertainty stated by the source.

Test: osmotic coefficient (dimensionless); mn = molality of the nth substance listed, in mol/kg
Conditions: 298.15 K, Liquid, isopiestic method

CCCCCC[N+](CC)(CC)CC.[I-] [hexyltriethylammonium iodide] + O
osmotic coefficient (m1 = 0.0542): 0.9221 ± 0.0039 | osmotic coefficient (m1 = 0.0712): 0.9085 ± 0.0046 | osmotic coefficient (m1 = 0.0797): 0.9098 ± 0.0045 | osmotic coefficient (m1 = 0.0926): 0.8987 ± 0.0051 | osmotic coefficient (m1 = 0.0971): 0.8963 ± 0.0053 | osmotic coefficient (m1 = 0.107): 0.8864 ± 0.0057 | osmotic coefficient (m1 = 0.1332): 0.8718 ± 0.0065 | osmotic coefficient (m1 = 0.1502): 0.8528 ± 0.0074 | osmotic coefficient (m1 = 0.1517): 0.8493 ± 0.0076 | osmotic coefficient (m1 = 0.153): 0.8537 ± 0.0073 | osmotic coefficient (m1 = 0.2121): 0.819 ± 0.0092 | osmotic coefficient (m1 = 0.232): 0.808 ± 0.0097 | osmotic coefficient (m1 = 0.2494): 0.798 ± 0.01 | osmotic coefficient (m1 = 0.2836): 0.775 ± 0.011 | osmotic coefficient (m1 = 0.3308): 0.751 ± 0.013 | osmotic coefficient (m1 = 0.3473): 0.744 ± 0.013 | osmotic coefficient (m1 = 0.3651): 0.737 ± 0.013 | osmotic coefficient (m1 = 0.3804): 0.724 ± 0.014 | osmotic coefficient (m1 = 0.3878): 0.713 ± 0.016 | osmotic coefficient (m1 = 0.4518): 0.678 ± 0.016 | osmotic coefficient (m1 = 0.5224): 0.648 ± 0.018 | osmotic coefficient (m1 = 0.5588): 0.633 ± 0.018 | osmotic coefficient (m1 = 0.5839): 0.624 ± 0.019 | osmotic coefficient (m1 = 0.6237): 0.609 ± 0.02 | osmotic coefficient (m1 = 0.7289): 0.582 ± 0.021 | osmotic coefficient (m1 = 0.8228): 0.555 ± 0.022 | osmotic coefficient (m1 = 0.9203): 0.531 ± 0.024 | osmotic coefficient (m1 = 1.101): 0.487 ± 0.026 | osmotic coefficient (m1 = 1.171): 0.475 ± 0.026 | osmotic coefficient (m1 = 1.275): 0.454 ± 0.027 | osmotic coefficient (m1 = 1.512): 0.421 ± 0.029 | osmotic coefficient (m1 = 1.84): 0.375 ± 0.031 | osmotic coefficient (m1 = 1.94): 0.366 ± 0.032 | osmotic coefficient (m1 = 2.04): 0.356 ± 0.032 | osmotic coefficient (m1 = 2.24): 0.337 ± 0.033 | osmotic coefficient (m1 = 2.344): 0.329 ± 0.034

CCCCC[N+](CC)(CC)CC.[I-] [pentyltriethylammonium iodide] + O
osmotic coefficient (m1 = 0.0539): 0.9283 ± 0.0036 | osmotic coefficient (m1 = 0.0703): 0.9203 ± 0.004 | osmotic coefficient (m1 = 0.0798): 0.9092 ± 0.0046 | osmotic coefficient (m1 = 0.0922): 0.903 ± 0.0049 | osmotic coefficient (m1 = 0.0976): 0.8923 ± 0.0054 | osmotic coefficient (m1 = 0.1065): 0.891 ± 0.0055 | osmotic coefficient (m1 = 0.132): 0.8799 ± 0.006 | osmotic coefficient (m1 = 0.1471): 0.8712 ± 0.0065 | osmotic coefficient (m1 = 0.1482): 0.8694 ± 0.0065 | osmotic coefficient (m1 = 0.1501): 0.8697 ± 0.0066 | osmotic coefficient (m1 = 0.2076): 0.8364 ± 0.0083 | osmotic coefficient (m1 = 0.2284): 0.821 ± 0.0091 | osmotic coefficient (m1 = 0.2454): 0.811 ± 0.0095 | osmotic coefficient (m1 = 0.2742): 0.802 ± 0.0099 | osmotic coefficient (m1 = 0.3148): 0.789 ± 0.011 | osmotic coefficient (m1 = 0.3295): 0.784 ± 0.011 | osmotic coefficient (m1 = 0.3456): 0.778 ± 0.011 | osmotic coefficient (m1 = 0.3579): 0.77 ± 0.012 | osmotic coefficient (m1 = 0.3614): 0.765 ± 0.013 | osmotic coefficient (m1 = 0.4108): 0.746 ± 0.013 | osmotic coefficient (m1 = 0.4718): 0.718 ± 0.014 | osmotic coefficient (m1 = 0.498): 0.711 ± 0.015 | osmotic coefficient (m1 = 0.514): 0.709 ± 0.015 | osmotic coefficient (m1 = 0.5434): 0.699 ± 0.015 | osmotic coefficient (m1 = 0.6238): 0.68 ± 0.016 | osmotic coefficient (m1 = 0.6938): 0.658 ± 0.017 | osmotic coefficient (m1 = 0.7814): 0.625 ± 0.019 | osmotic coefficient (m1 = 0.9005): 0.595 ± 0.02 | osmotic coefficient (m1 = 0.9578): 0.58 ± 0.021 | osmotic coefficient (m1 = 1.015): 0.571 ± 0.022 | osmotic coefficient (m1 = 1.199): 0.531 ± 0.024 | osmotic coefficient (m1 = 1.359): 0.508 ± 0.025 | osmotic coefficient (m1 = 1.465): 0.485 ± 0.026 | osmotic coefficient (m1 = 1.549): 0.468 ± 0.027 | osmotic coefficient (m1 = 1.688): 0.447 ± 0.028

CC[N+](CC)(CC)CC.[I-] [tetraethylammonium iodide] + O
osmotic coefficient (m1 = 0.0519): 0.8954 ± 0.0053 | osmotic coefficient (m1 = 0.0633): 0.8781 ± 0.0061 | osmotic coefficient (m1 = 0.086): 0.8544 ± 0.0073 | osmotic coefficient (m1 = 0.1019): 0.8443 ± 0.0078 | osmotic coefficient (m1 = 0.1134): 0.834 ± 0.0084 | osmotic coefficient (m1 = 0.1748): 0.806 ± 0.0098 | osmotic coefficient (m1 = 0.1826): 0.8 ± 0.01 | osmotic coefficient (m1 = 0.1916): 0.795 ± 0.01 | osmotic coefficient (m1 = 0.2018): 0.794 ± 0.01 | osmotic coefficient (m1 = 0.2218): 0.784 ± 0.011 | osmotic coefficient (m1 = 0.2718): 0.758 ± 0.012 | osmotic coefficient (m1 = 0.3586): 0.722 ± 0.014 | osmotic coefficient (m1 = 0.3999): 0.714 ± 0.014 | osmotic coefficient (m1 = 0.4738): 0.685 ± 0.016 | osmotic coefficient (m1 = 0.5329): 0.674 ± 0.017 | osmotic coefficient (m1 = 0.5415): 0.67 ± 0.017 | osmotic coefficient (m1 = 0.5698): 0.662 ± 0.017 | osmotic coefficient (m1 = 0.6153): 0.655 ± 0.017 | osmotic coefficient (m1 = 0.7181): 0.631 ± 0.018 | osmotic coefficient (m1 = 0.8456): 0.613 ± 0.02 | osmotic coefficient (m1 = 0.8512): 0.609 ± 0.02 | osmotic coefficient (m1 = 0.8671): 0.606 ± 0.02 | osmotic coefficient (m1 = 0.9377): 0.597 ± 0.02 | osmotic coefficient (m1 = 1.032): 0.583 ± 0.021 | osmotic coefficient (m1 = 1.076): 0.578 ± 0.021 | osmotic coefficient (m1 = 1.109): 0.574 ± 0.021 | osmotic coefficient (m1 = 1.151): 0.566 ± 0.022 | osmotic coefficient (m1 = 1.224): 0.558 ± 0.022 | osmotic coefficient (m1 = 1.309): 0.553 ± 0.022 | osmotic coefficient (m1 = 1.373): 0.546 ± 0.023 | osmotic coefficient (m1 = 1.391): 0.543 ± 0.023 | osmotic coefficient (m1 = 1.403): 0.544 ± 0.023 | osmotic coefficient (m1 = 1.429): 0.54 ± 0.023 | osmotic coefficient (m1 = 1.442): 0.537 ± 0.023
